From article PMC3914206 come the findings set out here.

What all share (format): binding
What all share (conditions): Compound Concentration 10 µM

Experiment [1] has as its target T1, panel of 442 kinases (Homo sapiens, UniProt P22455).
T1 construct: purchased KINOMEscan
The source says:
(§1) We assessed the selectivity of members of this scaffold using the KINOMEscan methodology across a near comprehensive panel of 442 kinases [[18,27]].

The target in experiment [2] is T2, panel of 442 kinases (Homo sapiens, UniProt P07949, V804M).
T2 construct: purchased KINOMEscan
T2 sequence (P07949 29-1114 V804M): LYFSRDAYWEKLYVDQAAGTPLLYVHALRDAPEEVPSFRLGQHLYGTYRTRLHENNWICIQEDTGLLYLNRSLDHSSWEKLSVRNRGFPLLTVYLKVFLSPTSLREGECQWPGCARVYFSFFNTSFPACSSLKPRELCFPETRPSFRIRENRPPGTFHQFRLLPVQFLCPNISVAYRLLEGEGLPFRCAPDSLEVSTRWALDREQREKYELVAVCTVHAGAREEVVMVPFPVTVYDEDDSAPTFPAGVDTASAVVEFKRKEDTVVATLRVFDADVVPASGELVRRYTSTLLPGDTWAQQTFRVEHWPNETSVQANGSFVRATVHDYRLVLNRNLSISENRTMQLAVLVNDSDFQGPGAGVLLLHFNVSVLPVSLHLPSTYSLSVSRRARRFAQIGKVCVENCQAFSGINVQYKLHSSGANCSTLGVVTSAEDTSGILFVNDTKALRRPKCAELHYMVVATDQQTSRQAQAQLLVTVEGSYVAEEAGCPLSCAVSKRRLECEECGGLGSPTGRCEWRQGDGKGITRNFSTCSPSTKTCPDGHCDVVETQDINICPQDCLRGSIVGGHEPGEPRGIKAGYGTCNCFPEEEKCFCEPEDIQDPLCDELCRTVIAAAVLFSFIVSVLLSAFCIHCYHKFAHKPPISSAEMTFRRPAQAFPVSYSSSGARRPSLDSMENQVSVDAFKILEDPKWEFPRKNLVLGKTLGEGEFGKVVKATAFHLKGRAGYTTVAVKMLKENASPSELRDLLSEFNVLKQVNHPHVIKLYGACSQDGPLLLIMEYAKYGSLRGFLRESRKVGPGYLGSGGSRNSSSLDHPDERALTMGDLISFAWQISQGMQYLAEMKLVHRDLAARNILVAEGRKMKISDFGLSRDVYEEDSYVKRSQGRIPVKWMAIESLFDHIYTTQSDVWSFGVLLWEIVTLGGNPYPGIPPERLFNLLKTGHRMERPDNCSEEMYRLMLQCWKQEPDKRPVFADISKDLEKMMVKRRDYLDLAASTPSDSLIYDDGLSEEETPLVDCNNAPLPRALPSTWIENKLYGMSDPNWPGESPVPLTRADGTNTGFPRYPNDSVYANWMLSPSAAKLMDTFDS
Description: as §1

In experiment [3] the target is T3, panel of 442 kinases (Homo sapiens, UniProt O76039).
T3 construct: purchased KINOMEscan
T3 sequence (O76039 1-960): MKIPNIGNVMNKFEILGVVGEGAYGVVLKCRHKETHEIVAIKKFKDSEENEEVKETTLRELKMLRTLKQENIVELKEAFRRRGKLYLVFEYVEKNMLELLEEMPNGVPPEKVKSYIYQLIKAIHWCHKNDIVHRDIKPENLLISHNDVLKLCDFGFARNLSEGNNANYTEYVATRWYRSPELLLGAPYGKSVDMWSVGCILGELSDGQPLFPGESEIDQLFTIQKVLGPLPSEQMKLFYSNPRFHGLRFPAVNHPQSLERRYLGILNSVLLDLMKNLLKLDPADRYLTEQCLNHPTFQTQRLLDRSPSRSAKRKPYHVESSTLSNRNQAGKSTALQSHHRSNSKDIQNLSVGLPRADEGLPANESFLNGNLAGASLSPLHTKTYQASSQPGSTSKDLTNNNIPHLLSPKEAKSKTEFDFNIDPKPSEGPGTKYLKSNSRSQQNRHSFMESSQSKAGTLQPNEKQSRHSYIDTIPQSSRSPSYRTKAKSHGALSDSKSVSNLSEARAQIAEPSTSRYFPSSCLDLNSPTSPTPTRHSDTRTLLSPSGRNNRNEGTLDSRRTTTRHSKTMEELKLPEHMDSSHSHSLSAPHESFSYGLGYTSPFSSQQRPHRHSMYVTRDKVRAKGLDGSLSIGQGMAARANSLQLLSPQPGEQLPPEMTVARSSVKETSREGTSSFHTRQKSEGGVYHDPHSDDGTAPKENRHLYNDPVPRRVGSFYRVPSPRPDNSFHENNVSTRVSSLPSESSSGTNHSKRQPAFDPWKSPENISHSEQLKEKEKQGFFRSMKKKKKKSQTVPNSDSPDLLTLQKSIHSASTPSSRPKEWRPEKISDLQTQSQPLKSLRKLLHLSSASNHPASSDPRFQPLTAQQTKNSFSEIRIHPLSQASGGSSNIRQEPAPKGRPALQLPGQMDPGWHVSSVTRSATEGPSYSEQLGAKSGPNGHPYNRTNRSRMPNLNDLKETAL
Description: as §1

T1 sequence (P22455 22-802): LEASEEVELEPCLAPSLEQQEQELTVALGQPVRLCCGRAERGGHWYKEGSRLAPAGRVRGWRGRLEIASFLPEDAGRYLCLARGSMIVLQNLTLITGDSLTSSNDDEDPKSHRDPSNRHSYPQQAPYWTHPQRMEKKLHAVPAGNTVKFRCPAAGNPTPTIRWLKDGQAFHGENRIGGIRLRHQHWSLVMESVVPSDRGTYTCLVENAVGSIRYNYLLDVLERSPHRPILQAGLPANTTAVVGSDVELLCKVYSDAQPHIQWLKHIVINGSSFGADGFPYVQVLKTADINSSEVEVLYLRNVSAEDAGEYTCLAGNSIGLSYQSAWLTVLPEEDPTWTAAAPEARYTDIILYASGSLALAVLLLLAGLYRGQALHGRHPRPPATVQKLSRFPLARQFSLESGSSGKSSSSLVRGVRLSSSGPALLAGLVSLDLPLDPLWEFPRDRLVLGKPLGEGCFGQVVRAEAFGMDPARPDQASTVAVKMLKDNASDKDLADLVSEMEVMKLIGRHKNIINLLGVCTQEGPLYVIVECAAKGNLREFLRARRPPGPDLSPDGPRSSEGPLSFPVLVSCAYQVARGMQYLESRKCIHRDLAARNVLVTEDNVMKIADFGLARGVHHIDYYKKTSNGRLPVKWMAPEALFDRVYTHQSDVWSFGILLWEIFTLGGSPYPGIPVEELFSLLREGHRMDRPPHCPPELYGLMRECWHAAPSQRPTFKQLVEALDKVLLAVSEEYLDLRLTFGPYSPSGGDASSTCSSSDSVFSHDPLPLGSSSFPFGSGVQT

Consider `CCOc1cc(C(=O)N2CCC(N3CCN(C)CC3)CC2)ccc1Nc1ncc2c(n1)N(C1CCCC1)c1ccccc1C(=O)N2C` [Compound 26], for which the “KINOMEscan: FGFR4” value at panel of 442 kinases [1] worked out at 100. In addition, at panel of 442 kinases [2], the “KINOMEscan: RET(V804M)” value is listed as 100. Besides, the “KINOMEscan: CDKL5” value on panel of 442 kinases [3] was determined as 100.
Regarding `COc1cc(C(=O)N2CCC(N3CCN(C)CC3)CC2)ccc1Nc1ncc2c(n1)N1CCc3cccc(c31)C(=O)N2C` [Compound 24], at panel of 442 kinases [1], the “KINOMEscan: FGFR4” value turned out to be 23.
On to `COc1cc(C(=O)N2CCC(N3CCN(C)CC3)CC2)ccc1Nc1ncc2c(n1)N(C)c1ccccc1C(=O)N2C` [15 (LRRK2-IN-1)], for which the “KINOMEscan: FGFR4” value on panel of 442 kinases [1] is recorded as 28. Moreover, the “KINOMEscan: RET(V804M)” value at panel of 442 kinases [2] is 80. Also, at panel of 442 kinases [3], the “KINOMEscan: CDKL5” value was determined as 100.
With `COc1cc(C(=O)N2CCC(N3CCN(C)CC3)CC2)ccc1Nc1ncc2c(n1)N(C1CCCC1)c1ccccc1C(=O)N2C` [Compound 25, 11-cyclopentyl-2-((2-methoxy-4-(4-(4-methylpiperazin-1-yl)piperidine-1-carbonyl)phenyl)amino)-5-methyl-5H-benzo[e]pyrimido[5,4-b][1,4]diazepin-6(11H)-one], the “KINOMEscan: FGFR4” value on panel of 442 kinases [1] is listed as 75. The “KINOMEscan: RET(V804M)” value at panel of 442 kinases [2] is 100. The “KINOMEscan: CDKL5” value at panel of 442 kinases [3] came to 93.
